# Measured values published in ChEMBL document CHEMBL4834481, “1-Aminomethyl SAR in a novel series of flavagline-inspired eIF4A inhibitors: Effects of amine substitution on cell potency and in vitro PK properties” (Bioorg Med Chem Lett, 2021).
# Experiments:
# [1] = Metabolic stability of the compound in rat liver microsomes assessed as parent compound remaining measured after 30 mins; assay type: ADME, Microsome; details: read-out: Stabilty
# [2] = Metabolic stability of the compound in mouse liver microsomes assessed as parent compound remaining measured after 30 mins; assay type: ADME, Microsome; details: for remaining at 0.5 h: liver microsomes, read-out: Stabilty
# [3] = Metabolic stability of the compound in human liver microsomes assessed as parent compound remaining measured after 30 mins; assay type: ADME, Microsome; details: read-out: Stabilty
# [4] = tested on: MDA-MB-231; experiment: Antiproliferative activity against human MDA-MB-231 cells; assay type: functional, cell-based
# [5] = target: hERG (KCNH2) (Homo sapiens, UniProt Q12809); experiment: Inhibition of human ERG at 10 uM by automated patch method relative to control
# [6] = Efflux ratio of permeability in human Caco-2 cells; assay type: ADME, cell-based
# [7] = Permeability of the compound across apical to basolateral side in human Caco-2 cells; assay type: ADME, cell-based; details: read-out: permeability
# [8] = target: T1, Eukaryotic initiation factor 4A-I (Homo sapiens, UniProt P60842); experiment: Inhibition of eIF4A (unknown origin) assessed as inhibition of translation of RNA featuring highly structured 5'-UTR of c-Myc
# [9] = target: T1, Eukaryotic initiation factor 4A-I; experiment: Inhibition of eIF4A (unknown origin) assessed as inhibition of translation of RNA featuring short 5'-UTR of tubulin
# [10] = species: Homo sapiens; experiment: Selectivity ratio of IC50 for inhibition of eIF4A (unknown origin) assessed as inhibition of translation of RNA featuring short 5'-UTR of tubulin to IC50 for inhibition of eIF4A (unknown origin) assessed as inhibition of translation of RNA featuring highly structured 5'-UTR of c-Myc
# [11] = tested on: MDA-MB-231; experiment: Antiproliferative activity against human MDA-MB-231 cells assessed as inhibition of cell viability incubated for 72 hrs by CellTiter-Glo assay; assay type: functional, cell-based; details: MDA-MB-231, 72 h
# T1 sequence (P60842 whole entry): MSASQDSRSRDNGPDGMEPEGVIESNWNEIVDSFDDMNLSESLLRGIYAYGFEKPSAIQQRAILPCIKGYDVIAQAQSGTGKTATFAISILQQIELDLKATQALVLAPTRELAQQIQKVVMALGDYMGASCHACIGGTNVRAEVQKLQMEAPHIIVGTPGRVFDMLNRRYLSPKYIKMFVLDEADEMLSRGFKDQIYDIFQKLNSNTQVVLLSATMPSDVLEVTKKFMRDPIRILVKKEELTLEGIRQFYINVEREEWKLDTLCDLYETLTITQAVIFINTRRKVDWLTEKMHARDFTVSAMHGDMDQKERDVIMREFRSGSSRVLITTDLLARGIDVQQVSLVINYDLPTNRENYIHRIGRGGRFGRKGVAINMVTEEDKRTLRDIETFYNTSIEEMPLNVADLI
# Chain of hERG (KCNH2) (Q12809 whole entry): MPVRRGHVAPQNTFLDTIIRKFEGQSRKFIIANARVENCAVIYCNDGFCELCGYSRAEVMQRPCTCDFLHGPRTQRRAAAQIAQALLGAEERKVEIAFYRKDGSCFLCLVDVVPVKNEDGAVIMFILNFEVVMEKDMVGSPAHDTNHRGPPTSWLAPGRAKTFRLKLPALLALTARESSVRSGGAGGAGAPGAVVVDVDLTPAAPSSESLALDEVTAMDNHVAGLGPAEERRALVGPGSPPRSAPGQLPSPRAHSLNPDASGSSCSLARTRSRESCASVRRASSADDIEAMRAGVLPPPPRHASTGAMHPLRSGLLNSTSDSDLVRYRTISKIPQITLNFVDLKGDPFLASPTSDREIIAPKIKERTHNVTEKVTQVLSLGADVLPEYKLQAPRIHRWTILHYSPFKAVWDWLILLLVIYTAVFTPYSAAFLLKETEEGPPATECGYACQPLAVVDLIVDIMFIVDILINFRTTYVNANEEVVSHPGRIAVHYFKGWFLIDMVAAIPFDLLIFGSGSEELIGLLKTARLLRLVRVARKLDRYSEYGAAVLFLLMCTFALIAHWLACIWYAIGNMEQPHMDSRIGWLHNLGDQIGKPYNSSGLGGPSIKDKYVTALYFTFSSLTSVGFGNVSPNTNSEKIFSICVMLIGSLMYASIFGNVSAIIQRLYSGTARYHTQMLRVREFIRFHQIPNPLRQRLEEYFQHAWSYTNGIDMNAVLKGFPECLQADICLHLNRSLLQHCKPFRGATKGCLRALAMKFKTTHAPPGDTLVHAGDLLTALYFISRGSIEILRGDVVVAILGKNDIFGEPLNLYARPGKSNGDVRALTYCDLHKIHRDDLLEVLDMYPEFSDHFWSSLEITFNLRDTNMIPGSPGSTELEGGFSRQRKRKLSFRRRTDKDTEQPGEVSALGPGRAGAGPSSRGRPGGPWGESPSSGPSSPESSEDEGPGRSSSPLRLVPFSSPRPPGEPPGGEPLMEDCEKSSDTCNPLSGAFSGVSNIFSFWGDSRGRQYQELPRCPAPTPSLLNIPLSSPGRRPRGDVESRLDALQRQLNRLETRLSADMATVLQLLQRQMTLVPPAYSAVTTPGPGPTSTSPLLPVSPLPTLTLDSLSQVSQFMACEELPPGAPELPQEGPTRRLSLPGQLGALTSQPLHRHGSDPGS
SMILES,remaining at 0.5 h [1] [%],remaining at 0.5 h [2] [%],remaining at 0.5 h [3] [%],EC50 [4] [nM],inhibition at 10 µM [5] [%],efflux ratio [6],Papp A→B [7] [×10⁻⁶ cm/s],"Stabilty ([2]; microsomes, 0.5 h) [%]",IC50 [8] [nM],IC50 [9] [nM],Ratio IC50 [10],EC50 [11] [nM]
COc1cncc2c1[C@]1(O)[C@@H](CNC3COC3)[C@H](CO)[C@@H](c3ccccc3)[C@]1(c1ccc(C#N)cc1)O2 (racemic),18,24,61,29,< 10,12,0.73,,,,,
COc1cncc2c1[C@]1(O)[C@@H](CN)C[C@@H](c3ccccc3)[C@]1(c1ccc(Br)cc1)O2 (racemic),58,,99,15,,13,0.43,123,5,21,4.2,
COc1cncc2c1[C@]1(O)[C@@H](CN)C[C@@H](c3ccccc3)[C@]1(c1ccc(C#N)cc1)O2 (racemic),85,108,102,11,54,58,0.13,,5.6,22,3.9,
COc1cncc2c1[C@]1(O)[C@@H](CNCC(F)F)[C@H](CO)[C@@H](c3ccccc3)[C@]1(c1ccc(C#N)cc1)O2 (racemic),0,1,19,21,27,6.7,0.82,,,,,
COc1cncc2c1[C@]1(O)[C@@H](CN(C)C)[C@H](CO)[C@@H](c3ccccc3)[C@]1(c1ccc(C#N)cc1)O2 (racemic),61,67,77,8,79,33,0.4,,,,,
COc1cncc2c1[C@]1(O)[C@@H](CN3CCOCC3)[C@H](CO)[C@@H](c3ccccc3)[C@]1(c1ccc(Br)cc1)O2 (racemic),0,1,6,39,12,,,,10,32,3.2,
COc1cncc2c1[C@]1(O)[C@@H](CNCc3ccnn3C)[C@H](CO)[C@@H](c3ccccc3)[C@]1(c1ccc(C#N)cc1)O2 (racemic),2,1,1,38,,76,0.19,,,,,
N#Cc1ccc([C@@]23Oc4cc(Cl)cnc4[C@]2(O)[C@@H](CN)C[C@H]3c2ccccc2)cc1 (racemic),,,,,,,,,,,,28
COc1cncc2c1[C@]1(O)[C@@H](CN3CC4(COC4)C3)[C@H](CO)[C@@H](c3ccccc3)[C@]1(c1ccc(C#N)cc1)O2 (racemic),48,67,92,19,,86,0.19,,,,,
COc1cncc2c1[C@]1(O)[C@@H](CN3CCOCC3)[C@H](CO)[C@@H](c3ccccc3)[C@]1(c1ccc(C#N)cc1)O2 (racemic),27,41,51,81,< 10,7,2.2,,,,,
COc1cncc2c1[C@]1(O)[C@@H](CNC3COC3)[C@H](CO)[C@@H](c3ccccc3)[C@]1(c1ccc(Br)cc1)O2 (racemic),,,,8,,,,,2.3,11,4.8,
COc1cncc2c1[C@]1(O)[C@@H](CN)[C@H](CO)[C@@H](c3ccccc3)[C@]1(c1ccc(C#N)cc1)O2 (racemic),97,83,95,106,< 10,> 4,< 0.07,,,,,
COc1cncc2c1[C@]1(O)[C@@H](CN)[C@H](CO)[C@@H](c3ccccc3)[C@]1(c1ccc(Br)cc1)O2 (racemic),95,107,102,48,37,61,0.04,,25,89,3.6,
